Data reported in patent US20200230205A1, “COMPOSITIONS AND METHODS FOR TREATING MYELIN DISORDERS” (CASE WESTERN RESERVE UNIVERSITY, priority 2017, published 2020).

Tests used:
Assay type in all cases: cell-based, mouse
[1] = test system: MMP-2; test: MMP-2 in OPC conditioned media or lysate (gelatin zymography, western blot)
Protocol: To assess MMP-2 or 10 in OPC CM or lysates, OPCs were incubated on precoated PLL, aggrecan, and laminin as described above. OPCs were treated with vehicle, 2.5 μM ISP or SISP for 2 days at 37° C. CM was then harvested and concentrated using Milipore Ultracel YM-C centrifugal filter units at max speed (Eppendorf Centrifuge 5415D) for 30 minutes at 4° C. […] of concentrated CM was loaded into each lane. OPC lysates were assessed using western blot techniques described below with […] protein loaded from each group.
Tissue samples or cerebellar slices or purified OPC cells were homogenized with RIPA lysis buffer and protein concentration was determined by Pierce BCA protein assay kit according to the manufacture instruction (Thermo Fisher). Then, equal amounts of protein were loaded to 15% SDS-PAGE gels, and electrophoretically transferred to PVDF membranes (Millipore). The membranes were blocked in 0.1% TPBS buffer with 5% non-fat milk for 1h at room temperature and probed with indicated primary antibodies overnight at 4° C. and followed by secondary antibody conjugated to horseradish peroxidase (HRP). The following primary antibodies were used: MBP (SMI-99P, Covance, 1:1000), CS-56 (C8035, Sigma, 1:1000), Laminin (L9393, Sigma, 1:1000), GAPDH (AF5718, R and D Systems, 1:1000), MMP-2 (AF1488, R and D Systems, 1:1000), MMP-10 (MAB910, R and D Systems, 1:1000), and […] (sc-47778, Santa Cruz, 1:1000). Enhanced chemiluminescence was performed with a West Pico Kit (Thermo Fisher) and detected by FluorChem E system (ProteinSimple, USA). The density of bands was quantified using ImageJ software (NIH).
CM was collected from 1×10^6 OPCs incubated on PLL, 1 μg/mL laminin, and 2 μg/mL aggrecan coated 6-well plates. OPCs were treated with vehicle, 2.5 μM ISP or SISP for 2 days at 37° C. […] Following washes with destaining buffer (40% MeOH, 10% Acetic Acid), Zymograms were imaged and the amount of gelatin degradation was assessed using ImageJ in a method described in the western blot section.

[2] = test system: laminin; test: Laminin degradation by OPC conditioned media (spot staining and western blot)
Protocol: CSPG gradients were prepared as described previously (Tom, V. J., et al. Studies on the Development and Behavior of the Dystrophic Growth Cone, the Hallmark of Regeneration Failure, in an In vitro Model of the Glial Scar and after Spinal Cord Injury.). 24-well glass coverslip were coated with poly-L-lysine and nitrocellulose, and a mixture of 700 μg/mL aggrecan (A1960 Sigma) and 10 μg/mL laminin (11243217001 Sigma) spotted on the coated coverslip. After drying, coated coverslips were then incubated with laminin at 37° C. for 3h. Purified OPCs were plated at a density of 10,000/coverslip and cultured in DMEM/F12 medium containing with N2, PDGF (20 ng/ml), FGF (20 ng/ml), NT-3 (5 ng/ml), CNTF (O1 ng/ml), Glutamine (200 mM). Coverslips were stained with CS-56 (C8035, Sigma, 1:500) and O4 antibodies (Hybridoma Core Cleveland Clinic, 1:10). O4-positive cells crossing the aggrecan border were counted for each spot. For CSPG gradient quantification, 1×10^6 OPCs were plated per well on PLL, 1 μg/mL laminin, and 2 μg/mL aggrecan coated 6-well plates. OPCs treated with vehicle, 2.5 μM ISP, or 2.5 μM SISP for 2 days at 37° C. CM was harvested and incubated with freshly made spots. […] Using ImageJ software (NIH), pixel intensities of the CS-56 or laminin spot rims were quantified using the same ROI. […]

[3] = test system: OPC secreted proteases; test: Protease array screen of OPC conditioned media; settings: OPC CM, 2.5 μM ISP for 4 div vs vehicle
Protocol: OPCs were cultured on 6-well plates for 4 div with vehicle control or 2.5 μM ISP treatment. Conditioned media was collected from each group and cell-strained before incubation with blot array provided in R & D Systems Protease Array Kit (ARY025). Instructions from kit were followed with overnight incubation of collected media at 4° C. Control and ISP blots were developed together with the same exposure time and pixel intensities of array was assess using ImageJ (NIH).

GRKKRRQRRRCDMAEHMERLKANDSLKLSQEYESI [ISP]
MMP-2 gelatin-degrading activity, zymography ([1]; OPC CM, 2.5 μM ISP vs controls): significantly increased | MMP-2 expression in OPC lysates normalized over GAPDH ([1]; OPC lysates, ISP): decrease in MMP-2 expression | MMP-2 in OPC CM, western blot ([1]; concentrated OPC CM, 2.5 μM ISP): clearly enhanced | laminin portion of the spot, immunostaining ([2]; CM of OPCs treated with 2.5 μM ISP): completely spared | laminin immunoblot ([2]; OPC CM, 2.5 μM ISP, laminin 10 μg/mL): no significant changes | protease array signal for ADAMTS, Kallikreins, Cathepsins, MMPs [3]: increased signal | protease array signal for Cathepsins L and V and MMP-10 (laminin degrading) [3]: reduced
